Reference: patent US8193333B2, “Cancer therapy using Bcl-Xl-specific siNA” (Centre Regional de Lutte Contre le Cancer-Centre Francois …, priority 2006, dated 2012)

Tests used:
SKOV3 cells [1] = assay: Cell mortality, viability, growth and cell cycle of SKOV3 cells (morphology, trypan blue exclusion, FACS of DNA content); format: cell-based, human; settings: for cellular and nuclear morphologies and cell cycle versus untransfected SKOV3 cells: alone 150 nM or in combination 75 nM each, 72 h after transfection, FIG. 13; for cell death (morphology, FACS analysis of the cell cycle): cisplatin 5 or 20 μg/ml, siRNA 150 nM
Procedure: (§1) Exponentially growing cells were exposed to CDDP for 2 hours at 37° C., in serum free medium. After exposure to the drug, the cell layers were rinsed and incubated in complete growth medium.
(§2) The siRNA duplexes were transfected according to the recommended procedure by using the Oligofectamine Reagent and Opti-MEM medium (INVITROGEN LIFE TECHNOLOGIES). 30-40% confluent cells were transfected in 25 cm^2 flasks with different concentrations of siXL1, siRNA Mcl-1 or siRNA control and incubated at 37° C., 5% CO2 for 4 hours. Next, 20% fetal bovin serum was added to reach a final concentration of 10% foetal bovin serum in the 25 cm^2 flask.
(§3) After treatment, detached cells were collected separately and adherent cells were dissociated by trypsin/EDTA. Adherent and detached cells were then pooled and centrifuged at 1500×g for 5 min before being fixed in 70% ethanol. The cells were then collected on a polylysine-coated glass slide by cytocentrifugation, before a 30 min room temperature incubation in a 1 μg/ml DAPI aqueous solution (BOEHRINGER MANNHEIM). Slides were thereafter extensively washed in distilled water and mounted in Mowiol (CALBIO-CHEM).
After treatment, detached cells were collected separately. Adherent cells were then harvested by trypsin/EDTA dissociation. Adherent and detached cells were then pooled and washed in PBS before being fixed in 70% ethanol and stored at −20° C. until analysis. Before flow cytometry analysis, the cells were washed in PBS and incubated for 30 min at room temperature in PBS in order to allow the release of low molecular weight (m.w.) DNA, characteristic of apoptotic cells. After a centrifugation at 4000 g for 10 min, the cell pellets were resuspended and stained with propidium iodide (PI) using the DNA Prep Coulter Reagent Kit (BECKMAN-COULTER) at a final concentration of 10^6 cells/ml.
Samples were analyzed using an EPICS XL flow cytometer (BECKMAN COULTER) equipped with an argon laser at 15 mW. PI-stained cells were analyzed using a 488 mn excitation. A 620 nm band pass filter was put on the red fluorescence of PI. Computerized gating was applied on the side and forward scatter to exclude very small debris and on pulse width and integral peak of red fluorescence to eliminate aggregates. All samples were analyzed at a flow rate lower than 100 events per second and with a sheath pressure of 30 psi.

Mcl-1 mRNA = assay: RT-PCR of Mcl-1 mRNA in SKOV3 cells; format: cell-based, human; settings: 72 h after transfection, FIG. 11A
Procedure: as §2

Mcl-1 protein = assay: Western blot of Mcl-1 protein expression in SKOV3 cells; format: cell-based, human; settings: FIG. 11B
Procedure: as §2
Cells were rinsed with ice cold PBS and lysed in 150 mM NaCl, 50 mM Tris-HCl pH 8, 1% Triton X100, 4 mM PMSF, 2 mM Aprotinin, 5 mM EDTA, 10 mM NaF, 10 mM NaPPi, 1 mM Na3VO4 for 30 min on ice. Lysates were clarified by centrifugation at 10000 g for 10 min at 4° C. and protein concentrations were determined using the Bradford assay (BIO-RAD). Equal amounts of total cellular protein (20 μg) were resolved in a Bis-tris-HCL buffered (pH 6.4) 4-12% polyacrylamide gel (NuPAGE® Novex® 4-12% Bis-tris gel, INVITROGEN) for 35 min at 200V and electrophoretically transferred on a PVDF membrane (MILLIPORE) for 75 min at 30V. The membrane was blocked for 1 hour at room temperature in T-TBS (132 mM NaCl, 20 mM Tris-HCl pH 7.6, 0.05% Tween 20) supplemented with 5% non-fat dry milk. […] After 3 washes with T-TBS and one with TBS, the immunoreactivity was detected by enhanced chemiluminescence (ECL kit, AMERSHAM).

Bcl-XL protein = assay: Western blot of Bcl-XL protein expression in tumour cell lines after siRNA transfection; format: cell-based, human; settings: SKOV3 cells
Procedure: SKOV3, OAW42, OAW42-R10, IGROV1 and IGROV1-R10 human ovarian adenocarcinoma cell lines, GL15 glioblastoma cell line, and NCI-H28 mesothelioma cell line were obtained from ECACC or ATCC. OAW42, OAW42-R10 cells were grown in DMEM (GIBCO-BRL) supplemented with 10% foetal calf serum (GIBCO-BRL), 2 mM Glutamax™ (GIBCO-BRL), 1 mM sodium pyruvate (GIBCO-BRL), 20 UI/L human recombinant insulin (LILLY), 33 mM sodium bicarbonate and 20 mM HEPES All the other cell lines were grown in RPMI 1640 medium (GIBCO-BRL) supplemented with 10% foetal calf serum (GIBCO-BRL), 2 mM Glutamax™ (GIBCO-BRL), 33 mM sodium bicarbonate and 20 mM HEPES. Cells were maintained at 37° C. in a 5% CO2 humidified atmosphere, and split twice a week by trypsinization.
as §1, §2
(§4) Cells were rinsed with ice cold PBS and lysed in 150 mM NaCl, 50 mM Tris-HCl pH 8, 1% Triton X100, 4 mM PMSF, 2 mM Aprotinin, 5 mM EDTA, 10 mM NaF, 10 mM NaPPi, 1 mM Na3VO4 for 30 min on ice. Lysates were clarified by centrifugation at 10000 g for 10 min at 4° C. and protein concentrations were determined using the Bradford assay (BIO-RAD). Equal amounts of total cellular protein (20 μg) were resolved in a Bis-tris-HCL buffered (pH 6.4) 4-12% polyacrylamide gel (NuPAGE® Novex® 4-12% Bis-tris gel, INVITROGEN) for 35 min at 200V and electrophoretically transferred on a PVDF membrane (MILLIPORE) for 75 min at 30V. The membrane was blocked for 1 hour at room temperature in T-TBS (132 mM NaCl, 20 mM Tris-HCl pH 7.6, 0.05% Tween 20) supplemented with 5% non-fat dry milk. The membrane was incubated for 1 hour at room temperature in T-TBS-milk with the following primary antibodies: anti-Bcl-XL/S (1:500, S18 SANTA-CRUZ BIOTECHNOLOGY), anti-PARP (1:1000, CELL-SIGNALING TECHNOLOGY), anti-caspase-3 (1:1000, BD BIOSCIENCES PHARMINGEN) anti-cleaved caspase-3 (1:1000, CELL-SIGNALING TECHNOLOGY), anti-alpha-tubulin (1:3000, SIGMA) and anti-Mcl-1 (1:750, S19 SANTA-CRUZ BIOTECHNOLOGY). After three washes with T-TBS, the membrane was incubated for 1 h at room temperature in T-TBS-milk with the adequate peroxidase conjugated secondary antibody (Anti-rabbit IgG, CELL-SIGNALING TECHNOLOGY, and anti-mouse IgG, AMERSHAM). After 3 washes with T-TBS and one with TBS, the immunoreactivity was detected by enhanced chemiluminescence (ECL kit, AMERSHAM).

[2] = tested on: intraperitoneal SKOV3 human ovarian adenocarcinoma; assay: Survival of nude mice bearing intraperitoneal SKOV3 tumours; format: in vivo, Swiss/nude mice; settings: siRNA 25 μg/kg, cisplatin 4 μg/kg intraperitoneal, treatment repeated one month later, FIG. 15
Procedure: 4-week-old female Swiss/nude mice were obtained from CHARLES-RIVER LABORATORIES and maintained in a pathogen-free environment. The mice were fed a standard laboratory diet and tap water ad libitum and kept a 23±1° C. with a 12 h light/dark cycle. Animal experiments in the present study were performed in compliance with the guidelines of the Federation of european laboratory animal science associations.
6-8 weeks old mice were implanted intraperitoneally with 2×10^7 ovarian adenocarcinoma SKOV3 cells. As described previously, this model reflects the i.p growth pattern of advanced ovarian cancer (Louis et al, Cancer Gene Therapy, 2006, 13, 367-374).
Twenty one days after tumour implantation, mice were allocated to one of the eight treatment groups (10 mice per group) summarized in Table II: • Group 1 comprised untreated animals. • Group 2 received intraperitoneal injection of 4 μg/kg cisplatin in 1 ml 0.9% NaCl solution. • Group 3 received intraperitoneal injection of 25 μg/kg control siRNA in 1 ml 0.9% NaCl. • Group 4 received intraperitoneal injection of 25 μg/kg Bcl-XL siRNA in 1 ml 0.9% NaCl. • Group 5 received intraperitoneal injection of 25 μg/kg control siRNA in 1 ml 0.9% NaCl and the following day 4 μg/kg of cisplatin in 1 ml 0.9% NaCl solution. • Group 6 received intraperitoneal injection of 4 μg/kg of cisplatin in 1 ml 0.9% NaCl solution and the following day 25 μg/kg control siRNA in 1 ml 0.9% NaCl. • Group 7 received intraperitoneal injection of 25 μg/kg Bcl-XL siRNA in 1 ml 0.9% NaCl and the following day 4 μg/kg of cisplatin in 1 ml 0.9% NaCl solution. • Group 8 received intraperitoneal injection of 4 μg/kg of cisplatin in 1 ml 0.9% NaCl solution and the following day 25 μg/kg Bcl-XL siRNA in 1 ml 0.9% NaCl.
The same treatment was repeated one month later. Mice were killed and autopsied when considered as moribund. Organs and tumours were formalin-fixed and paraffin-embedded for histological examination. At the end of the experiment, all surviving animals were sacrificed, and histological examination was performed in order to detect residual tumour nodes.

SKOV3 cells [3] = assay: Apoptosis induction in SKOV3 cells (cell and nuclear morphology after DAPI, caspase 3 activation and PARP cleavage by Western blot); format: cell-based, human; settings: 24 h, combination with 20 μg/ml cisplatin
Procedure: as §1, §2, §4, §3

“siMcl-1: Mcl-1 specific siRNA; sense 5′-gugccuuuguggcuaaacatt-3′ (SEQ ID NO: 7), anti-sense 5′-uguuuagccacaaaggcacct-3′ (SEQ ID NO: 8) (sense GUGCCUUUGUGGCUAAACATT; antisense UGUUUAGCCACAAAGGCACCT; chemistry not given here)” was tested, and the “cytotoxic effect on SKOV3 cells” value (SKOV3 cells [1]; 50 nM each siRNA, absence of cisplatin, FIG. 12) was “no cytotoxic effect”, the “cytotoxic effect of each siRNA” value (SKOV3 cells [1]; SKOV3 cells, FIGS. 13 and 14) was “slight cytoxic effect” and the “cellular and nuclear morphologies and cell cycle versus untransfected SKOV3 cells” value (SKOV3 cells [1]) was “no difference”. The “Mcl-1 mRNA expression (RT-PCR)” value (Mcl-1 mRNA) was “almost completely” and the “Mcl-1 protein expression after 72 hours” value (Mcl-1 protein) was “disappeared totally”.
For “control siRNA: control siRNA without homology to relevant human genes; sense SEQ ID NO: 9, anti-sense SEQ ID NO: 10 (sense GACGUGGGACUGAAGGGGUTT; antisense ACCCCUUCAGUCCCACGUCTT; chemistry not given here) [reference compound]”, the “effect of various concentrations on Bcl-XL protein expression” value (Bcl-XL protein; 72 h after transfection, FIG. 3) was “No effect”, the “cell death (morphology, FACS analysis of the cell cycle)” value (SKOV3 cells [1]; SKOV3 cells) was “no changes” and the “cellular and nuclear morphologies and cell cycle versus untransfected SKOV3 cells” value (SKOV3 cells [1]) was “no difference”. The “effect on mice survival” value [2] was “does not increase the mice survival”.
In the case of `N.N.[Cl][Pt][Cl]` [cisplatin, cis-diamino-dichloro-platinum II, reference compound], the “Bcl-XL protein expression 24 hours after exposure to cisplatin” value (Bcl-XL protein; 72 hours after siRNA transfection, cisplatin 5 and 20 μg/ml, FIG. 9) is reported as “no effect”, the “caspase 3 activation and PARP cleavage after 24 h exposure to cisplatin” value (SKOV3 cells [3]) is reported as “no sign of apoptosis” and the “cell mortality / cell cycle after several days” value (SKOV3 cells [1]; SKOV3 cells, cisplatin 5 and 20 μg/ml) is reported as “only a transient arrest in cell cycle progression”. For the same molecule, the “cell death (morphology, FACS analysis of the cell cycle)” value (SKOV3 cells [1]; SKOV3 cells) was “low level or no cell death” and the “effect on mice survival” value [2] was “does not improve survival”.
